The values below come from article PMC11111035, “Lemon basil seed-derived peptide: Hydrolysis, purification, and its role as a pancreatic lipase inhibitor that reduces adipogenesis by downregulating SREBP-1c and PPAR-γ in 3T3-L1 adipocytes” (PLOS ONE, 2024).

Ends that are not written are not given here.

In series [1] the test system is 3T3-L1 cells. The following applies: cited from earlier work. From the text:
Although we believe there have been no previous studies detailing the […] peptide, it can be considered as a suitable novel peptide capable of addressing the problem of obesity. The literature does contain references to peptides which act in a similar manner to affect preadipocytes during their initial proliferation. […] It was noted by Zhang et al. that th ...

The test system of series [2] is lipase. Particulars: cited from earlier work. The method, then: The Lineweaver-Burk plot was used to evaluated the inhibition mode of the […] peptide obtained from DLSH, and the outcome can be observed in Fig 6(A) (S6 Table). The plot of the inhibition activity was created by altering the concentration of the substrate while maintaining the peptide concentration at the same level throughout (0, 0.1, 0.3 and 0.5 mM). […] The peptide accordingly acted as a lipase inhibitor by taking the form o ...

For series [3], the system named is 3T3-L1 cells. As to the kind of experiment: MTT cell viability. The format is cell-based. The following applies: 72 h, mean ± SE (n = 3), ns. The method, then:
Following incubation, each well received 10 μL of MTT solution (5 mg/mL), before a further 4 h of incubation at a temperature of 37°C. Then 100 μL of DMSO was added to dissolve the MTT-formazan crystals in the viable cells before measuring the absorbance at 540 nm.

The target in series [4] is T1, porcine pancreatic lipase (Sus scrofa, UniProt P00591).
T1 sequence (P00591 1-450): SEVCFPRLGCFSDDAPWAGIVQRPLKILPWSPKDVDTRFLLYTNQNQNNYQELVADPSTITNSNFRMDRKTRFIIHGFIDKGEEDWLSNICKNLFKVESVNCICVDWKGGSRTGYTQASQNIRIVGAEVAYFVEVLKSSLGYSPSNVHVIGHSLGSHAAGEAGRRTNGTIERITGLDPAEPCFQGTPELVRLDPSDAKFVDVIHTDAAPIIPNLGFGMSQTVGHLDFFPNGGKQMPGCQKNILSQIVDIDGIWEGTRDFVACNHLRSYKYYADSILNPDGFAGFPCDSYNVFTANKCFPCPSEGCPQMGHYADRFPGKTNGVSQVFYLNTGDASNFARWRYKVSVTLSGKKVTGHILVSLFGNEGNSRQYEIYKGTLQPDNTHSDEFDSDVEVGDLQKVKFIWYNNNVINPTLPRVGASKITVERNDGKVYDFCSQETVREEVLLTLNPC
In words: Lipase inhibitory activity (LI), pNPP substrate. The format is biochemical. Particulars: synthetic peptide, pH 7.0, 37°C, 30 min. The method, then: (§1) The determination of lipase inhibition was performed using a method with slight modifications as described by Ketprayoon et al.. The p-nitrophenyl palmitate (pNPP) was served as the substrate, with a solution containing 30 mg of pNPP dissolved in 10 mL of isopropanol. This pNPP solution was then emulsified by combining it with 90 mL of 50 mM Tris-HCl at pH 7.0, 20 μL of Triton X-100 and 100 mg of gum arabic. The assay was initiate the assay by incubating the porcine pancreatic lipase (0.5 mg/mL in 50 mM Tris‐HCl buffer, pH 7.0), pNPP solution and DLSH peptides at a temperature of 37°C for 30 min. Absorbance was then measured at 410 nm for p-nitrophenol with Orlistat employed as the positive control. […] LI=AN−AP×100/AN (3) in which AN indicates the absorbance of the negative control in the absence of the peptide, whereas AP indicates the absorbance of activity when the peptide is present.

Series [5] addresses T1, porcine pancreatic lipase. As to the kind of experiment: Kinetic study of lipase inhibition (Lineweaver-Burk, Dixon plot). The following applies: non-competitive, pNPP, 37°C, pH 7.0, 30 min, mean ± SE (n = 3), read-out: Inhibition constant (Ki). Type of series: biochemical. The method, then:
as §1
The inhibitory mechanism of the lipase inhibitor was investigated using the Lineweaver-Burk plot. […] The reaction mixtures were incubated under a temperature of 37°C and pH 7.0 for 30 min, while initial velocity rates were determined at different substrate concentrations (0.1, 0.2, 0.3, 0.4, and 0.5 mM). […] The Michaelis-Menten constant (Km) and maximum velocity (Vmax) for the lipase inhibition were determined by analyzing the intercepts on the x-axis and y-axis, respectively. […]

Series [6] relates to AMPK-α. In words: Western blot AMPK-α expression. Type of series: cell-based. Particulars: GRSPDTHSG 0.25-1 mM or simvastatin 10 μM. The method, then:
On the first day, a modified assay proposed by Zhang et al. was carried out for the purpose of 3T3-L1 cells cell culture and differentiation, by initially seeding the 3T3-L1 preadipocyte cells in 6-well plates with a density of 1×10^5 cells per well and then culturing in DMEM with 10% FBS at a temperature of 37°C for 24 h in an atmosphere of 5% carbon dioxide. On the second day, adipocyte differentiation was performed by treating the 3T3-L1 cells with a differentiation medium comprising DMEM with 10% FBS, mixed with 0.5 mM 3-isobutyl-1-methylxanthine (IBMX), 1 μM dexamethasone, and 10 μg/mL insulin. This process took three days, whereupon on day 5 the original medium was removed and a new insulin medium, comprising DMEM with 10% FBS and 10 μg/mL insulin, was used to maintain adipocyte characteristics with a 3-day incubation period. […] Once extracted, the proteins of equivalent concentration underwent separation on 12% sodium dodecyl sulfate-polyacrylamide gel electrophoresis (SDS-PAGE) before moving to polyvinylidene fluoride (PVDF) membranes (Millipore, Bedford, MA, USA). […] The membranes were then incubated overnight at a temperature of 4°C with the primary antibodies (PPAR-γ, AMPK-α, SREBP-1C and β-actin) diluted at 1:1000. […] The band intensity could then be measured using ImageJ software (version 1.53; National Institutes of Health, MD, USA). […]
On the technique in general: A western blot detects proteins with antibodies after separation by electrophoresis.

Series [7] concerns 3T3-L1 adipocytes. As to the kind of experiment: Intracellular lipid accumulation, Oil Red O staining. Type of series: cell-based. The following applies: simvastatin 10 μM (S); % of differentiated model (100%); mean ± SE. The method, then: On the first day, a modified assay proposed by Zhang et al. was carried out for the purpose of 3T3-L1 cells cell culture and differentiation, by initially seeding the 3T3-L1 preadipocyte cells in 6-well plates with a density of 1×10^5 cells per well and then culturing in DMEM with 10% FBS at a temperature of 37°C for 24 h in an atmosphere of 5% carbon dioxide. On the second day, adipocyte differentiation was performed by treating the 3T3-L1 cells with a differentiation medium comprising DMEM with 10% FBS, mixed with 0.5 mM 3-isobutyl-1-methylxanthine (IBMX), 1 μM dexamethasone, and 10 μg/mL insulin. This process took three days, whereupon on day 5 the original medium was removed and a new insulin medium, comprising DMEM with 10% FBS and 10 μg/mL insulin, was used to maintain adipocyte characteristics with a 3-day incubation period. […] Oil Red O staining was then used to evaluate the intracellular lipid accumulation of the mature 3T3-L1 adipocytes. This process required the cells to first be rinsed in PBS and then fixed for 1 h at room temperature with 10% formalin. […] It was then possible to evaluate the accumulation of lipids by dissolving in isopropanol (100%), and to measure the absorbance at 540 nm. The lipid accumulation was expressed as a percentage in comparison to the control.

For the molecule GAGVGY [GAGVGY], the “Glucose transport and lipid metabolism” value in series [1] is “enhance the transport of glucose and support the lipid metabolism in 3T3-L1 adipocytes”. As to “NPVWKRK [peptide from Spirulina platensis protein, pepsin digestion]”, the Triglyceride accumulation result in series [1] is given as “potentially limiting triglyceride accumulation”. For glutathione, in series [2], the “Mode of lipase inhibition” value is “non-competitive inhibition”.

For the molecule “CANPHELPNK [peptide from Spirulina platensis protein, pepsin digestion]”, the Triglyceride accumulation result in series [1] is “potentially limiting triglyceride accumulation”. The IC50 is the point on the concentration scale where inhibition reaches its midpoint. A lower IC50 goes with higher potency. By Ki is commonly meant the equilibrium dissociation constant of an inhibitor or competing ligand from its target. For GRSPDTHSG, the Cell viability in series [3] (0.25 mM) was 97.02 ± 4.65%; in series [3] (0.50 mM) it was 92.90 ± 1.60%; in series [3] (1.00 mM) it was 85.96 ± 2.05%. Also, in series [4], the IC50 came out at 255 µM. Also, the Ki in series [5] turned out to be 610 ± 90 µM. For “LLVVYPWTQR [synthetic decapeptide derived from C. pyenoidose]”, the Intracellular lipid accumulation in series [1] (600 μg/mL, reduced) was 27.91%. In the case of “DIVDKIEI [peptide derived from extract of boiled tuna]”, in series [1], the 3T3-L1 preadipocyte differentiation result is “effective in inhibiting 3T3-L1 preadipocyte differentiation”; the “Triglyceride levels and glucose uptake” value was “lowering both triglyceride levels and the uptake of glucose”.

Regarding `CCC(C)(C)C(=O)O[C@H]1C[C@@H](C)C=C2C=C[C@H](C)[C@H](CC[C@@H]3C[C@@H](O)CC(=O)O3)[C@H]21` [Simvastatin, simvastatin], in series [6], the “AMPK expression, in words” value was “AMPK expression level rose”. This molecule came in with a Lipid accumulation in series [7] of 51.66 ± 1.81%.
